Molecular target: EGFR (human) (UniProt P00533)
Conditions: hn5

EGFR (human), sequence (P00533 whole entry, looked up): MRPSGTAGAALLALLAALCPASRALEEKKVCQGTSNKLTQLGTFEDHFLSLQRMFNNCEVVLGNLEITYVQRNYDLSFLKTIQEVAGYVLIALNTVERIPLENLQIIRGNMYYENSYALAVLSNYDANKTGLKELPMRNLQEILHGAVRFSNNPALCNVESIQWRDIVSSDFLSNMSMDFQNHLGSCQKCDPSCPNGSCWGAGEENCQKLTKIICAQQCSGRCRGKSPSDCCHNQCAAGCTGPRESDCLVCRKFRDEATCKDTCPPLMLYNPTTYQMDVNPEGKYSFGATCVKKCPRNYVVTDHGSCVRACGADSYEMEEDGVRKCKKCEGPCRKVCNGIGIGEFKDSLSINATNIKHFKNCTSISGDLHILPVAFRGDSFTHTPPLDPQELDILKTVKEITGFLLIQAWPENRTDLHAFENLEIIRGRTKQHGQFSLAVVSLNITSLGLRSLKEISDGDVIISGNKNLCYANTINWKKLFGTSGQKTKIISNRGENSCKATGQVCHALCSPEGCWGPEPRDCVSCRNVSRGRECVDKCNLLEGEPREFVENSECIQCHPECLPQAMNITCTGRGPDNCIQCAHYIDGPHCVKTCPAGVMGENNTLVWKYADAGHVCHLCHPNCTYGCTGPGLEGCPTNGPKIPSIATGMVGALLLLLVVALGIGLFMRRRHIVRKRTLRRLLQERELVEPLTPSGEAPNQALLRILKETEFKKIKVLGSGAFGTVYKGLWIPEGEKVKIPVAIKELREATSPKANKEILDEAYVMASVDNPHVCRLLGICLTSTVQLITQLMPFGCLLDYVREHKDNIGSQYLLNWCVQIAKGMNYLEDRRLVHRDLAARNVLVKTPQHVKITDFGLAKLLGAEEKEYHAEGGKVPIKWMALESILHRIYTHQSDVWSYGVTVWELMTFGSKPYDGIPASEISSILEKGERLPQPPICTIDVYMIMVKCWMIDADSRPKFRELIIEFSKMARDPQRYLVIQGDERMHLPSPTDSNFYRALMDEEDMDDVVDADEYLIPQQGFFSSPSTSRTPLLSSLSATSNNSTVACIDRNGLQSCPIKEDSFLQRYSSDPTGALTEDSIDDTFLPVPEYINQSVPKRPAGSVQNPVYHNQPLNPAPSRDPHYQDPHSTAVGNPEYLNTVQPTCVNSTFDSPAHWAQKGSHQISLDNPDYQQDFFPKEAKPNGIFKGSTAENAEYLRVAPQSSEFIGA

| Compound | IC50 |
| --- | --- |
| CS(=O)(=O)CCNCc1nc(-c2ccc3ncnc(Nc4ccc(OCc5cccc(Br)c5)cc4)c3c2)cs1 | 25 to 50 µM |
| CS(=O)(=O)CCNCc1ccc(-c2cc3c(Nc4ccc(OCc5ccc(F)cc5)cc4)ncnc3cn2)o1 | < 5 µM |
| CS(=O)(=O)CCNCc1ccoc1-c1ccc2ncnc(Nc3ccc(OCc4ccccc4)cc3)c2c1 | 5 to 25 µM |
| CS(=O)(=O)CCNCc1ccc(-c2ccc3ncnc(Nc4ccc(OCc5ccccc5)c(C(F)(F)F)c4)c3c2)o1 | < 5 µM |
| CS(=O)(=O)CCNCc1ccc(-c2cc3c(Nc4ccc(S(=O)(=O)c5ccccc5)cc4)ncnc3cn2)o1 | < 5 µM |
| CS(=O)(=O)CCNCc1ccc(-c2ccc3ncnc(Nc4ccc(S(=O)(=O)c5ccccc5)cc4)c3c2)o1 | < 5 µM |
| CS(=O)(=O)CCNCc1ccc(-c2ccc3ncnc(Nc4ccc(OCc5cccc(F)c5)cc4)c3c2)o1 | < 5 µM |
| CS(=O)(=O)CCNCc1ccc(-c2ccc3ncnc(Nc4ccc(OCc5ccccc5)c(F)c4)c3c2)o1 | < 5 µM |
| CS(=O)(=O)CCNCc1nc(-c2ccc3ncnc(Nc4ccc(OCc5cccc(F)c5)cc4)c3c2)cs1 | < 5 µM |
| CS(=O)(=O)CCNCc1nc(-c2ccc3ncnc(Nc4ccc(OCc5cccc(F)c5)c(F)c4)c3c2)cs1 | < 5 µM |
| COc1cc(Nc2ncnc3ccc(-c4csc(CNCCS(C)(=O)=O)n4)cc23)ccc1OCc1cccc(F)c1 | 5 to 25 µM |
| CS(=O)(=O)CCNCc1nc(-c2ccc3ncnc(Nc4ccc(OCc5cccc(C(F)(F)F)c5)cc4)c3c2)cs1 | < 5 µM |
| CS(=O)(=O)CCNCc1ccc(-c2ccc3ncnc(Nc4ccc(OCc5cccc(F)c5)c(F)c4)c3c2)o1 | < 5 µM |
| CS(=O)(=O)CCNCc1ccc(-c2cc3c(Nc4ccc(S(=O)(=O)c5ccccc5)cc4)ncnc3cc2F)o1 | 5 to 25 µM |
| CS(=O)(=O)CCNCc1ccc(-c2cc3c(Nc4ccc(OCc5cccc(F)c5)cc4)ncnc3cn2)o1 | < 5 µM |
| CS(=O)(=O)CCNCc1ccc(-c2ccc3ncnc(Nc4ccc(OCc5cccc(C(F)(F)F)c5)cc4)c3c2)o1 | 5 to 25 µM |
| CS(=O)(=O)CCNCc1coc(-c2ccc3ncnc(Nc4ccc(OCc5ccccc5)cc4)c3c2)c1 | < 5 µM |

Now from value to compound:

| IC50 | Compound |
| --- | --- |
| < 5 µM | COc1cc2ncnc(Nc3ccc4c(cnn4Cc4ccccc4)c3)c2cc1-c1ccc(CNCCS(C)(=O)=O)o1 |
| < 5 µM | COc1cc(Nc2ncnc3ccc(-c4ccc(CNCCS(C)(=O)=O)o4)cc23)ccc1OCc1cccc(F)c1 |
| < 5 µM | CS(=O)(=O)CCNCc1nc(-c2ccc3ncnc(Nc4ccc5c(cnn5Cc5cccc(F)c5)c4)c3c2)cs1 |
| < 5 µM | CS(=O)(=O)CCNCc1nc(-c2ccc3ncnc(Nc4ccc(S(=O)(=O)c5ccccc5)cc4)c3c2)cs1 |
| < 5 µM | CS(=O)(=O)CCNCc1nc(-c2ccc3ncnc(Nc4ccc5c(cnn5Cc5ccccc5)c4)c3c2)cs1 |
| < 5 µM | CS(=O)(=O)CCNCc1nc(-c2ccc3ncnc(Nc4ccc(OCc5ccccc5)cc4)c3c2)cs1 |
| < 5 µM | CS(=O)(=O)CCNCc1ccc(-c2cc3c(Nc4ccc(OCc5ccccc5)cc4)ncnc3cc2F)o1 |
| < 5 µM | CS(=O)(=O)CCNCc1cccc(-c2cc3c(Nc4ccc(OCc5ccccc5)cc4)ncnc3cn2)c1 |
| < 5 µM | CS(=O)(=O)CCNCc1ccc(-c2cc3c(Nc4ccc5c(cnn5Cc5ccccc5)c4)ncnc3cc2F)o1 |
| < 5 µM | CS(=O)(=O)CCNCc1coc(-c2cc3c(Nc4ccc(OCc5cccc(F)c5)cc4)ncnc3cn2)c1 |
| < 5 µM | CS(=O)(=O)CCNCc1nc(-c2ccc3ncnc(Nc4ccc(OCc5ccccc5)c(F)c4)c3c2)cs1 |
| < 5 µM | COc1cc2ncnc(Nc3ccc(S(=O)(=O)c4ccccc4)cc3)c2cc1-c1ccc(CNCCS(C)(=O)=O)o1 |
| < 5 µM | CS(=O)(=O)CCNCc1ccc(-c2ccc3ncnc(Nc4ccc(OCc5cccc(Br)c5)cc4)c3c2)o1 |
| < 5 µM | COc1cc2ncnc(Nc3ccc(OCc4ccccc4)cc3)c2cc1-c1ccc(CNCCS(C)(=O)=O)o1 |
| < 5 µM | CS(=O)(=O)CCNCc1ccc(-c2ccc3ncnc(Nc4ccc(OCc5ccccc5)c(Cl)c4)c3c2)o1 |

— the Kinase Knowledgebase extract (Sharma et al. 2016)
